Reference: ChEMBL document CHEMBL4354878, “Structure-Based Bioisosterism Yields HIV-1 NNRTIs with Improved Drug-Resistance Profiles and Favorable Pharmacokinetic Properties” (J Med Chem, 2020)
≈ marks a conversion by molar mass, not a printed value.

Assays:
[1] = system: Human immunodeficiency virus 1; assay: Antiviral activity against HIV1 RES056 infected in human MT4 cells assessed as protection against virus-induced cytopathic effect incubated for 5 days by MTT assay; assay type: functional, organism-based; settings: Human immunodeficiency virus 1, RES056, MT4, 120 h
[2] = system: Human immunodeficiency virus 1; assay: Antiviral activity against HIV1 3B infected in human MT4 cells assessed as protection against virus-induced cytopathic effect incubated for 5 days by MTT assay; assay type: functional, organism-based; settings: Human immunodeficiency virus 1, 3B, MT4, 120 h
[3] = system: MT4; assay: Cytotoxicity against human MT4 cells assessed as reduction in cell viability incubated for 5 days by MTT assay; assay type: functional; settings: MT4, 120 h
[4] = Selectivity index, ratio of CC50 for human MT4 cells to EC50 for antiviral activity against HIV1 3B infected in human MT4 cells
[5] = Selectivity index, ratio of CC50 for human MT4 cells to EC50 for antiviral activity against HIV1 RES056 infected in human MT4 cells
[6] = system: Human immunodeficiency virus 1; assay: Antiviral activity against HIV1 expressing RT L100I mutant infected in human MT4 cells assessed as protection against virus-induced cytopathic effect incubated for 5 days by MTT assay; assay type: functional, organism-based; settings: Human immunodeficiency virus 1, MT4, 120 h
[7] = system: Human immunodeficiency virus 1; assay: Antiviral activity against HIV1 expressing RT K103N mutant infected in human MT4 cells assessed as protection against virus-induced cytopathic effect incubated for 5 days by MTT assay; assay type: functional, organism-based; settings: Human immunodeficiency virus 1, MT4, 120 h
[8] = system: Human immunodeficiency virus 1; assay: Antiviral activity against HIV1 expressing RT Y181C mutant infected in human MT4 cells assessed as protection against virus-induced cytopathic effect incubated for 5 days by MTT assay; assay type: functional, organism-based; settings: Human immunodeficiency virus 1, MT4, 120 h
[9] = system: Human immunodeficiency virus 1; assay: Antiviral activity against HIV1 expressing RT Y188L mutant infected in human MT4 cells assessed as protection against virus-induced cytopathic effect incubated for 5 days by MTT assay; assay type: functional, organism-based; settings: Human immunodeficiency virus 1, MT4, 120 h
[10] = system: Human immunodeficiency virus 1; assay: Antiviral activity against HIV1 expressing RT E138K mutant infected in human MT4 cells assessed as protection against virus-induced cytopathic effect incubated for 5 days by MTT assay; assay type: functional, organism-based; settings: Human immunodeficiency virus 1, MT4, 120 h
[11] = system: Human immunodeficiency virus 1; assay type: functional, organism-based; settings: Human immunodeficiency virus 1, MT4, 120 h
[12] = system: Human immunodeficiency virus 1; assay: Antiviral activity against HIV1 3B infected in human MT4 cells grown under 30 passages in presence of (E)-4-((4-((4-(4-(2-Cyanovinyl)-2,6-dimethylphenoxy)thieno[2,3- d]pyrimidin-2-yl)amino)piperidin-1-yl)methyl)benzenesulfonamide assessed as protection against virus-induced cytopathic effect incubated for 5 days by MTT assay; assay type: functional, organism-based; settings: Human immunodeficiency virus 1, 3B, MT4, 120 h
[13] = system: Human immunodeficiency virus 1; assay: Antiviral activity against HIV1 3B infected in human MT4 cells grown under 30 passages in presence of 4-[[4-[[4-(4-cyano-2,6-dimethylphenoxy)thieno[3,2-d]pyrimidin-2-yl]amino]-1-piperidyl]methyl]benzenesulfonamide assessed as protection against virus-induced cytopathic effect incubated for 5 days by MTT assay; assay type: functional, organism-based; settings: Human immunodeficiency virus 1, 3B, MT4, 120 h
[14] = system: Human immunodeficiency virus 1; assay: Antiviral activity against HIV1 3B infected in human MT4 cells grown under 30 passages in presence of 4-[[4-[[4-[4-[2-cyanovinyl]-2,6-dimethylphenoxy]thieno[3,2-d]pyrimidin-2-yl]amino]-1-piperidyl]methyl]benzenesulfonamide assessed as protection against virus-induced cytopathic effect incubated for 5 days by MTT assay; assay type: functional, organism-based; settings: Human immunodeficiency virus 1, 3B, MT4, 120 h
[15] = Aqueous solubility of the compound in pH 7 buffer; assay type: physicochemical
[16] = Solubility of the compound in pH 7.4 buffer by HPLC analysis
[17] = Solubility of the compound in pH 7.0 buffer by HPLC analysis
[18] = Solubility of the compound in pH 2.0 buffer by HPLC analysis
[19] = system: Human immunodeficiency virus 1; assay: Antiviral activity against HIV1 3B infected in human MT4 cells grown under 30 passages in absence of test compound assessed as protection against virus-induced cytopathic effect incubated for 5 days by MTT assay; assay type: functional, organism-based; settings: Human immunodeficiency virus 1, 3B, MT4, 120 h
[20] = target: Human immunodeficiency virus type 1 reverse transcriptase (Human immunodeficiency virus 1, UniProt Q72547); assay: Inhibition of HIV1 RT in presence of reconstituted template and viral nucleotides [digoxigenin (DIG)-dUTP, biotin-dUTP and dTTP] incubated for 1 hr by ELISA method
[21] = target: Human immunodeficiency virus type 1 reverse transcriptase (Human immunodeficiency virus 1, UniProt Q72547, K103N); assay: Inhibition of HIV1 RT K103N mutant in presence of reconstituted template and viral nucleotides [digoxigenin (DIG)-dUTP, biotin-dUTP and dTTP] incubated for 1 hr by ELISA method
[22] = target: Human immunodeficiency virus type 1 reverse transcriptase (Human immunodeficiency virus 1, UniProt Q72547, Y181C); assay: Inhibition of HIV1 RT Y181C mutant in presence of reconstituted template and viral nucleotides [digoxigenin (DIG)-dUTP, biotin-dUTP and dTTP] incubated for 1 hr by ELISA method
[23] = target: Human immunodeficiency virus type 1 reverse transcriptase (Human immunodeficiency virus 1, UniProt Q72547, Y188L); assay: Inhibition of HIV1 RT Y188L mutant in presence of reconstituted template and viral nucleotides [digoxigenin (DIG)-dUTP, biotin-dUTP and dTTP] incubated for 1 hr by ELISA method
[24] = target: Human immunodeficiency virus type 1 reverse transcriptase (Human immunodeficiency virus 1, UniProt Q72547, E138K); assay: Inhibition of HIV1 RT E138K mutant in presence of reconstituted template and viral nucleotides [digoxigenin (DIG)-dUTP, biotin-dUTP and dTTP] incubated for 1 hr by ELISA method
[25] = target: Human immunodeficiency virus type 1 reverse transcriptase (Human immunodeficiency virus 1, UniProt Q72547, K103N/Y181C); assay: Inhibition of HIV1 RT K103N/Y181C mutant in presence of reconstituted template and viral nucleotides [digoxigenin (DIG)-dUTP, biotin-dUTP and dTTP] incubated for 1 hr by ELISA method
[26] = Toxicity in Kunming mouse assessed as induction of toxic symptoms at 2000 mg/kg, ig measured 2 hrs post dose and then measured every 48 hrs for 14 days; assay type: organism-based; settings: in vivo, po
[27] = Toxicity in Kunming mouse assessed as induction of mortality at 2000 mg/kg, ig measured 2 hrs post dose and then measured every 48 hrs for 14 days; assay type: organism-based; settings: in vivo, po
[28] = Toxicity in Kunming mouse assessed as induction of abnormal behaviors at 2000 mg/kg, ig measured 2 hrs post dose and then measured every 48 hrs for 14 days; assay type: organism-based; settings: in vivo, po
[29] = Toxicity in Kunming mouse assessed as induction of body weight changes at 2000 mg/kg, ig measured 2 hrs post dose and then measured every 48 hrs for 14 days; assay type: organism-based; settings: in vivo, po
[30] = system: Human immunodeficiency virus 1; assay: Resistance index, ratio of EC50 for antiviral activity against HIV1 3B infected in human MT4 cells grown under 30 passages in presence of (E)-4-((4-((4-(4-(2-Cyanovinyl)-2,6-dimethylphenoxy)thieno[2,3- d]pyrimidin-2-yl)amino)piperidin-1-yl)methyl)benzenesulfonamide to EC50 for antiviral activity against HIV1 3B infected in human MT4 cells; assay type: functional
[31] = system: Human immunodeficiency virus 1; assay: Resistance index, ratio of EC50 for antiviral activity against HIV1 3B infected in human MT4 cells grown under 30 passages in presence of 4-[[4-[[4-(4-cyano-2,6-dimethylphenoxy)thieno[3,2-d]pyrimidin-2-yl]amino]-1-piperidyl]methyl]benzenesulfonamide to EC50 for antiviral activity against HIV1 3B infected in human MT4 cells; assay type: functional
[32] = system: Human immunodeficiency virus 1; assay: Resistance index, ratio of EC50 for antiviral activity against HIV1 3B infected in human MT4 cells grown under 30 passages in presence of 4-[[4-[[4-[4-[2-cyanovinyl]-2,6-dimethylphenoxy]thieno[3,2-d]pyrimidin-2-yl]amino]-1-piperidyl]methyl]benzenesulfonamide to EC50 for antiviral activity against HIV1 3B infected in human MT4 cells; assay type: functional
[33] = target: Human immunodeficiency virus type 1 reverse transcriptase (Human immunodeficiency virus 1, UniProt Q72547, L100I); assay: Inhibition of HIV1 RT L100I mutant in presence of reconstituted template and viral nucleotides [digoxigenin (DIG)-dUTP, biotin-dUTP and dTTP] incubated for 1 hr by ELISA method

Row | SMILES | EC50 [1] [nM] | EC50 [2] [nM] | CC50 [3] [nM] | selectivity ratio [4] | selectivity ratio [5] | EC50 [6] [nM] | EC50 [7] [nM] | EC50 [8] [nM] | EC50 [9] [nM] | EC50 [10] [nM] | EC50 [11] [nM] | EC50 [12] [nM] | EC50 [13] [nM] | EC50 [14] [nM] | EC50 [19] [nM] | further results
1 | Cc1cc(/C=C/C#N)cc(C)c1Oc1nc(NC2CCN(Cc3ccc(C(N)=O)cc3)CC2)nc2sccc12 | 66.9 | 5.92 | 3540 | 597 | 53 | 6.11 | 4.99 | 12.8 | 27.1 | 9.24 | 15.1 |  |  |  |  | 
2 | Cc1cc(C#N)cc(C)c1Oc1nc(Nc2ccc(C#N)cc2)nc(N)c1Br [ETRAVIRINE] |  |  |  |  |  | 5.38 | 2.35 | 15.7 | 20.5 |  |  | 1240 | 530 | 370 |  | solubility [15]: < 1 µg/mL; solubility [16]: < 1 µg/mL; solubility [17]: < 1 µg/mL; solubility [18]: 127 µg/mL (≈ 292 µM)
3 | Cc1cc(/C=C/C#N)cc(C)c1Oc1nc(NC2CCN(Cc3ccc(F)cc3)CC2)nc2sccc12 | 150 | 19.7 | 5840 | 279 | 39 | 30.4 | 22.6 | 36.3 | 152 | 123 | 127 |  |  |  |  | 
4 | Cc1cc(/C=C/C#N)cc(C)c1Oc1nc(NC2CCN(Cc3ccc(S(N)(=O)=O)cc3)CC2)nc2sccc12 | 6.45 | 3.24 |  |  |  | 2.05 | 2.34 | 6.57 | 7.59 | 6.7 | 4.81 | 3600 | 1780 | 870 | 4.1 | IC50 [20]: 114 nM; IC50 [21]: 222 nM; IC50 [22]: 141 nM; IC50 [23]: 452 nM; IC50 [24]: 374 nM; IC50 [25]: 120 nM; Activity [26]: Non-Toxic; Activity [27]: Non-Toxic; Activity [28]: Non-Toxic; Activity [29]: Non-Toxic
5 | Cc1ccnc2c1NC(=O)c1cccnc1N2C1CC1 [NEVIRAPINE] |  |  |  |  |  |  |  |  |  |  |  | 3760 | > 9510 | > 9510 | 87.9 | Ratio EC50 [30]: 43; Ratio EC50 [31]: >108; Ratio EC50 [32]: >108
6 | Cc1cn([C@H]2C[C@H](N=[N+]=[N-])[C@@H](CO)O2)c(=O)[nH]c1=O [ZIDOVUDINE] |  |  |  |  |  |  |  |  |  |  |  | 1 | 5.1 | 4.9 | 12.7 | Ratio EC50 [30]: 0.1; Ratio EC50 [31]: 0.4; Ratio EC50 [32]: 0.4
7 | Cc1cc(/C=C/C#N)cc(C)c1Nc1ccnc(Nc2ccc(C#N)cc2)n1 [RILPIVIRINE] |  |  |  |  |  |  |  |  |  |  |  | > 3870 | 90 | 60 |  | solubility [16]: < 1 µg/mL; solubility [17]: < 1 µg/mL; solubility [18]: 103 µg/mL (≈ 281 µM)
8 | Cc1cc(C#N)cc(C)c1Oc1nc(NC2CCN(Cc3ccc(S(N)(=O)=O)cc3)CC2)nc2ccsc12 |  |  |  |  |  |  |  |  |  |  |  | > 36400 | > 36400 | > 36400 | 1.1 | IC50 [20]: 76 nM; IC50 [33]: 92 nM; IC50 [21]: 162 nM; IC50 [22]: 126 nM; IC50 [23]: 215 nM; IC50 [24]: 200 nM; IC50 [25]: 71 nM
9 | C[C@H](Cn1cnc2c(N)ncnc21)OCP(=O)(O)O [TENOFOVIR ANHYDROUS] |  |  |  |  |  |  |  |  |  |  |  | 2170 | 3760 | 3310 | 4140 | Ratio EC50 [30]: 0.5; Ratio EC50 [31]: 0.9; Ratio EC50 [32]: 0.8
10 | CCOC(=O)c1ccc(CN2CCC(Nc3nc(Oc4c(C)cc(/C=C/C#N)cc4C)c4ccsc4n3)CC2)cc1 | 153 | 10.6 | 111000 | 10500 | 728 | 19.4 | 12 | 30.9 | 120 | 33.1 | 32.1 |  |  |  |  | 
11 | Cc1cc(/C=C/C#N)cc(C)c1Oc1nc(NC2CCN(Cc3ccc(S(N)(=O)=O)cc3)CC2)nc2ccsc12 |  |  |  |  |  |  |  |  |  |  |  | > 5530 | 860 | 1220 |  | IC50 [20]: 101 nM; IC50 [33]: 99 nM; IC50 [21]: 191 nM; IC50 [22]: 149 nM; IC50 [23]: 301 nM; IC50 [24]: 350 nM; IC50 [25]: 107 nM
12 | Cc1cc(/C=C/C#N)cc(C)c1Oc1nc(NC2CCN(Cc3cccc(C(N)=O)c3)CC2)nc2sccc12 | 62 | 5.73 | 3950 | 689 | 64 | 5.75 | 5.45 | 17.7 | 39.5 | 18.4 | 12.2 |  |  |  |  | 
13 | Cc1cc(/C=C/C#N)cc(C)c1Oc1nc(NC2CCN(Cc3ccc(C#N)cc3)CC2)nc2sccc12 | 138 | 12.4 | 7740 | 625 | 56 | 21.3 | 17.3 | 32.8 | 117 | 36.3 | 32.6 |  |  |  |  | 
